Data on 15 molecules can be found in patent US20240174642A1, “HETEROCYCLIC COMPOUNDS CAPABLE OF ACTIVATING STING” (Boehringer Ingelheim International GmbH, priority 2022, published 2024).

The test system of one experiment is dog STING (dSTING). Nature of the experiment: Dog differential scanning fluorimetry (DSF) assay, thermal shift of dog STING protein. Conditions: 100 μM compound, 3 μM recombinant dog STING (residues 149 to 375), 5× SYPRO Orange, 2% DMSO. The format is binding. From the text:
The protein used for the biophysical experiments was a recombinant dog STING protein comprising its cytosolic cGAMP binding ectodomain. A codon optimized DNA sequence (for expression in Escherichia coli) encoding amino acid residues 149 to 375 of dog STING was synthesized by GeneArt (Regensburg, Germany) and inserted into a pET17b E. coli expression vector. The protein construct encodes an N-terminal 8× His-tag followed by tobacco etch virus protease (TEV) cleavage site and the above STING gene sequence. The resulting protein sequence for the used dog STING protein (SEQ ID No. 1) is listed below:
For expression of the above recombinant dog STING, the construct was transformed into E. coli BL21 DE3 strain and grown in shake flasks in LB-medium at 15° C. Expression was induced by addition of isopropyl β-D-1-thiogalactopyranoside to a final concentration of 1 mM and cultures shaken overnight. Cell pellets were centrifuged and stored at −70° C. until further use. Protein was purified by cell thawing in lysis buffer (20 mM TRIS-HCl, pH 8, 500 mM NaCl, 1 mM DTT, 0.5 mg/ml lysozyme, Complete Protease Inhibitor (Roche) and DNase (Roche)), followed by metal affinity purification using Ni-NTA resins and elution buffer consisting of 20 mM TRIS-HCl, pH 8, 500 mM NaCl, 1 mM DTT, 300 mM imidazole. Cleavage of the His-Tag using TEV-protease took place during dialysis in size exclusion buffer (20 mM TRIS-HCl, pH 8, 100 mM NaCl, 1 mM DTT) over night. To further purify the target protein a reverse Nickel affinity column was used and the flow through was applied to a size exclusion chromatography. The peak fraction was collected and concentrated to 5 mg/mL.
Dye fluorescence is quenched in aqueous environment and increases upon association of the dye with the hydrophobic parts of the unfolding protein. […] The inflection point of the curve represents the “melting” temperature of the protein (Tm) which is calculated numerically using the Boltzmann equation.
The thermal stability of the dog STING protein was measured in assay buffer containing 20 mM Tris, 150 mM NaCl at pH7.5. The assay uses 384-Well qPCR Plates (Catalog #781358, BRAND), Microseal®‘B’ Adhesive Seals for PCR Plates (Catalog #MSB-1001, BIO-RAD) and was run on a CFX384 Real-Time System (Bio-Rad). A DMSO stock solution of SYPRO orange (SIGMA 55692-500UL) was prepared. Compound stock solutions (10 mM in DMSO) were diluted 1:2 in DMSO to an intermediate compound concentration of 5 mM and then further diluted 1:40 in assay buffer resulting in a compound concentration of 125 μM and 2.5% DMSO. Fluorescent dye stock solution (5000× SYPRO Orange) was then mixed with target protein and buffer to a concentration of 15 μM Protein and 25× SYPRO Orange. 2 μl of this protein-dye-mixture was added to 8 μl compound solution. Final volume was 10 μL. 3-6 well positions were used as negative control (protein with 2% DMSO). The plates were prepared for duplicate measurement and centrifuged for 2 min at 1000 g. In the measurement, 160 cycles of 0.5° C. were used (temperature ramp 15 s/cycle, 15° C. to 95° C.).
Final Assay concentrations for compound characterization were 100 μM compound, 3 μM target protein, 5× SYPRO Orange, and 2% DMSO in 10 μl. All dispensing steps were performed using a HamiltonStar pipetting robot (Hamilton).
Dissociation curves were processed in Bio-Rad CFX Manager. Peak type was set to “negative”. Compound codes for screen were assigned in the plate layout.
Two replicates of TM measurements were averaged, and the standard deviation was calculated. In cases of SD>1.5° C. the measurement was repeated.
The melting point (Tm) obtained for STING protein alone was subtracted from T obtained for protein incubated with ligand to generate ΔTm values.
(Differential scanning fluorimetry follows unfolding on heating by fluorescence.)

Another experiment relates to STING. Nature of the experiment: Dog whole blood (dWB) assay, IFNb secretion by ELISA. The class given is cell-based. Conditions: 4 h incubation at 37° C., % control relative to cGAMP stimulated control, read-out: EC50, cytokine secretion in dog whole blood (dWB) culture system as determined by canine Interferon-beta (IFNb) ELISA. The protocol: In this assay, freshly collected canine blood is incubated with a STING agonist, and interferon beta levels in the supernatant are quantified by ELISA. […] In accordance with the invention, a combination of a high dDSF and low dWB is especially favorable.
For the detection of STING activation in physiological environment dog whole blood (dWB) was stimulated by the cyclic dinucleotide cGAMP or a test compound. Pathway activity was monitored by measuring the IFNb production.
Compounds were delivered as 10 mM DMSO solution, diluted and transferred by using an Echo acoustic dispenser to the 384well assay plate (Greiner #781182), pre-filled with 10 μl 1× HBSS in each well (10× HBSS (+Ca/+Mg), #14065-049, Gibco). Typically, 8 concentrations were used with the highest concentration at 10 μM in the final assay volume followed by approximately 1:4 dilution steps. DMSO concentration was set to 0.1% in the final assay volume. The 384-well assay plate contained 20 test compounds and DMSO in control and cGAMP standard wells. The dog whole blood was collected as Na-Citrate blood (e.g., 3.8% in Monovettes from Sarstedt) and kept at 4° C. overnight until use in the assay. 80 μl of the whole blood samples were transferred to each well of the 384-well assay plates filled with compound/1×HBSS. Blood plates were kept at room temperature for 60 minutes and continuous shaking with 450 rpm, covered with the lid, but not sealed. A 10× cGAMP assay solution was diluted from a 2 mM stock solution in 1×HBSS immediately before use at room temperature. 10 μl of the 10× cGAMP/HBSS were added to the high control wells, whereas HBSS only was added to all compound and low control wells. After covering assay plates with the lid, blood plates were kept for a 4 h incubation at 37° C. in the incubator, without shaking. For the detection of IFNb in dog plasma the ELISA Kit for Canine Interferon Beta (Biotrend #SEA222Ca) was used. Whole blood assay plates were centrifuged at 1000 g for 10 minutes at 8° C. 40 μl of supernatant was transferred with a 96 well pipetting robotics from the 384 well whole blood plate to the corresponding 96 well ELISA plate, pre-filled with […] assay diluent in each well. Plates were sealed with microplate seals and kept at 4° C. overnight again. ELISA plates were brought to room temperature, followed by a 1 h incubation at 37° C. in the incubator. Detection Reagent A working solution was prepared by diluting Detection Reagent A 1:100 in Assay Reagent A. Liquid was then removed from the 96 well ELISA plate to add 100 μL Detection Reagent A working solution to each well. ELISA plates were covered with the plate sealer and incubated for 1 hour at 37° C. in the incubator. The 1× Wash buffer was prepared by diluting the 30× Wash Buffer Concentrate in H2O. Detection Reagent B working solution was prepared by diluting Detection Reagent B 1:100 in Assay Reagent B. The ELISA plates were washed three times with 350 μl wash buffer and afterwards inverted and blotted against absorbent paper to remove any liquid. 100 μL of Detection Reagent B working solution was added to each well of the ELISA plates, which are then covered with the plate sealer and incubated for 30 minutes at 37° C. in the incubator. After incubation the ELISA assay plates were washed five times with 350 μl wash buffer and were again inverted and blotted against absorbent paper to remove any remaining liquid. 90 μL of TMB Substrate was added to each well of the ELISA plates, which were then covered with the plate sealer and incubated for 15 minutes at 37° C. in the incubator. The reaction was stopped by adding 50 μL stop solution and absorbance was measured at 450 nm immediately.
For data evaluation and calculation, % control calculation of each well was based on the mean of high (cGAMP stimulated control) and mean of low (unstimulated control) controls by using the following standard 4 parameter logistic regression formula: […]
(In general: An ELISA detects its analyte on a solid surface through an enzyme-linked reagent.)

Molecules are shown by their SMILES. Where two headings read alike, the source gives them in different places.

Regarding `Cc1cccc2c(-c3cccc4nn(C)cc34)nn(-c3ccc(N4C[C@@H]5CC[C@H]4C[C@H]5C(=O)O)nc3)c12` (single isomer, unassigned) [Example 7], the “Delta TM, interaction with dog STING as determined by DSF (dDSF)” value (“Delta TM, interaction with dog STING” for short) in the experiment with dog STING (dSTING) amounted to 15.5 °C.

Regarding `Cc1cccc2c(-c3cccc4nn(C)cc34)nn(-c3ccc(N4C[C@H]5CC[C@@H]4C[C@@H]5C(=O)O)nc3)c12` (single isomer, unassigned) [Example 8], in the experiment with dog STING (dSTING), the “Delta TM, interaction with dog STING” value stood at 24.8 °C.

For `Cc1cccc2c(-c3cccc4nn(C)cc34)nn(-c3ccc(N4C[C@@H]5CC[C@H]4C[C@@H]5C(=O)O)nc3)c12` (single isomer, unassigned) [Example 9], the “Delta TM, interaction with dog STING” value in the experiment with dog STING (dSTING) was found to be 33.8 °C. The EC50 (in general, the concentration giving half of the maximal effect) in the experiment on STING (Canis lupus familiaris) came to 652 nM.

Consider `Cc1cccc2c(-c3cccc4nn(C)cc34)nn(-c3ccc(N4C[C@H]5CC[C@@H]4C[C@H]5C(=O)O)nc3)c12` (single isomer, unassigned) [Example 10], for which the “Delta TM, interaction with dog STING” value with dog STING (dSTING) is 35.8 °C. In the experiment with STING (Canis lupus familiaris), the EC50 was found to be 185 nM.

Turning to `CC(=O)N1C[C@H]2CC[C@@H]1CN2c1ccc(-n2nc(-c3cccc4nn(C)cc34)c3cccc(C)c32)cn1` (single isomer, unassigned) [Example 14], the “Delta TM, interaction with dog STING” value in the experiment on dog STING (dSTING) came to 23.8 °C. The EC50 with STING (Canis lupus familiaris) was 2920 nM.

On to `CC(=O)N1C[C@@H]2CC[C@H]1CN2c1ccc(-n2nc(-c3cccc4nn(C)cc34)c3cccc(C)c32)cn1` (single isomer, unassigned) [Example 15], for which, in the experiment with dog STING (dSTING), the “Delta TM, interaction with dog STING” value came to 30.0 °C. Moreover, the concentration for a half-maximal effect (EC50) in the experiment on STING (Canis lupus familiaris) is 95.1 nM.

Take `Cc1cccc2c(-c3cccc4nn(C)cc34)nn(-c3ccc(N4C[C@@H]5C[C@H]4C[C@H]5C(=O)O)nc3)c12` (single isomer, unassigned) [Example 18]: in the experiment with dog STING (dSTING), the “Delta TM, interaction with dog STING” value was determined as 31.5 °C. For the same molecule, the EC50 in the experiment on STING (Canis lupus familiaris) came to 519 nM.

Take `Cc1cccc2c(-c3cccc4nn(C)cc34)nn(-c3ccc(N4C[C@H]5C[C@@H]4C[C@@H]5C(=O)O)nc3)c12` (single isomer, unassigned) [Example 19]: in the experiment with dog STING (dSTING), the “Delta TM, interaction with dog STING” value stood at 33.5 °C. Also, the EC50 in the experiment on STING (Canis lupus familiaris) is 278 nM.

Regarding `Cc1cccc2c(-c3cccc4nn(C)cc34)nn(-c3ccc(N4CC[C@H](CC(=O)O)C4)nc3)c12` [Example 1, 2-[(3R)-1-(5-{2″,7-dimethyl-1H,2″H-[3,4″-biindazol]-1-yl}pyridin-2-yl)pyrrolidin-3-yl]acetic acid], the EC50 in the experiment with STING (Canis lupus familiaris) came out at 308 nM.

`Cc1cccc2c(-c3cccc4nn(C)cc34)nn(-c3ccc(N4CC[C@@H](CC(=O)O)C4)nc3)c12` [Example 2, 2-[(3S)-1-(5-{2″,7-dimethyl-1H,2″H-[3,4″-biindazol]-1-yl}pyridin-2-yl)pyrrolidin-3-yl]acetic acid]: in the experiment on dog STING (dSTING), the “Delta TM, interaction with dog STING” value is 33.3 °C. In the experiment on STING (Canis lupus familiaris), the EC50 stood at 212 nM.

For `Cc1cccc2c(-c3cccc4nn(C)cc34)nn(-c3ccc(N4CCOC(CC(=O)O)C4)nc3)c12` (stereo not drawn) [Example 3, 2-[4-(5-{2′,7-dimethyl-1H,2′H-[3,4′-biindazol]-1-yl}pyridin-2-yl)morpholin-2-yl]acetic acid], in the experiment on dog STING (dSTING), the “Delta TM, interaction with dog STING” value worked out at 26.1 °C. Further, in the experiment with STING (Canis lupus familiaris), the EC50 is 3060 nM.

As for `Cc1cccc2c(-c3cccc4nn(C)cc34)nn(-c3ccc(N4CC5CC4CC5C(=O)O)nc3)c12` (stereo not drawn) [Example 4, 2-(5-{2″,7-dimethyl-1H,2″H-[3,4″-biindazol]-1-yl}pyridin-2-yl)-2-azabicyclo[2.2.1]heptane-5-carboxylic acid], the “Delta TM, interaction with dog STING” value in the experiment with dog STING (dSTING) amounted to 29.0 °C. In addition, the EC50 in the experiment on STING (Canis lupus familiaris) was found to be 704 nM.

As for `Cc1cccc2c(-c3cccc4nn(C)cc34)nn(-c3ccc(N4CC5CCC4CC5C(=O)O)nc3)c12` (stereo not drawn) [Example 6, 2-(5-{2′,7-dimethyl-1H,2′H-[3,4′-biindazol]-1-yl}pyridin-2-yl)-2-azabicyclo[2.2.2]octane-5-carboxylic acid], in the experiment on dog STING (dSTING), the “Delta TM, interaction with dog STING” value stood at 34.0 °C. In the experiment with STING (Canis lupus familiaris), the EC50 is 417 nM.

`CC(=O)N1C[C@H]2C[C@@H]1CN2c1ccc(-n2nc(-c3cccc4nn(C)cc34)c3cccc(C)c32)cn1` [Example 11, 1-[(1R,4R)-5-(5-{2″,7-dimethyl-1H,2″H-[3,4″-biindazol]-1-yl}pyridin-2-yl)-2,5-diazabicyclo[2.2.1]heptan-2-yl]ethan-1-one]: the “Delta TM, interaction with dog STING” value in the experiment on dog STING (dSTING) was determined as 28.3 °C. For the same molecule, the concentration giving a half-maximal response (EC50) in the experiment on STING amounted to 620 nM.

With `CC(=O)N1CC2CCC1CN2c1ccc(-n2nc(-c3cccc4nn(C)cc34)c3cccc(C)c32)cn1` (stereo not drawn) [Example 13, 1-[5-(5-{2′,7-dimethyl-1H,2′H-[3,4′-biindazol]-1-yl}pyridin-2-yl)-2,5-diazabicyclo[2.2.2]octan-2-yl]ethan-1-one], in the experiment on dog STING (dSTING), the “Delta TM, interaction with dog STING” value was 28.3 °C. Also, the EC50 in the experiment with STING (Canis lupus familiaris) is 282 nM.
